Several values for one entry are separate records, joined by “and”; a condition that tells them apart may be missing. Equal values may be shown once. Entries after “also recorded” stand apart in the source; their conditions may differ. Read-outs that look alike come from different tables or passages of the source.
Key:
[1] = AML patients, 48 h treatment with induction chemotherapy
Excerpt: Clinical trial. […] The study was an open-label trial. […] Inclusion criteria included non-pregnant patients with an Eastern Cooperative Oncology Group performance status of 0 to 3, a bilirubin level more than twice the upper limits of normal, aspartate aminotransferase/alanine aminotransferase level more than thrice the upper limits of normal, and creatinine levels more than 1.5 times the upper limits of normal. Patients with current or recent gastrointestinal bleeding were excluded. […] Dexamethasone was administered at a dose of 10 mg p.o. every 6 h beginning at hour 0 and continuing until hour 48. […] Induction chemotherapy consisted of 3 days of idarubicin in combination with a 7-day continuous infusion of cytarabine. Some patients over the age of 60 received a reduced dose of idarubicin and the addition of etoposide (32).

primary AML cells [2] = test system: primary AML cells
[3] = CINJ TPA Phase 1 study, relapsed/refractory malignancies: clinical response and toxicity; assay type: in vivo, human
Excerpt: 12-O-tetradecanoylphorbol-13-acetate (TPA), an activator of protein kinase C, is being developed as a therapeutic agent for patients with acute myelogenous leukemia (AML) because of its profound effects on intracellular signaling pathways, it's capacity to induce differentiation and/or apoptosis in cell lines, and preliminary clinical data from China indicating effectiveness in myeloid malignancies (Han Z T, Zhu X X, Yang R Y, Sun J Z, Tian G F, Liu X J et al. Effect of intravenous infusions of 12-O-tetradecanoylphorbol-13-acetate (TPA) in patients with myelocytic leukemia: preliminary studies on therapeutic efficacy and toxicity. Proc Natl Acad Sci USA 1998; 95(9):5357-5361). A recently completed Investigator-initiated, Phase I study at The Cancer Institute of New Jersey/Robert Wood Johnson Medical School/UMDNJ represented the only FDA-approved study to administer TPA to patients in the United States and provided a unique opportunity to study the in vivo effects of TPA in patients with relapsed/refractory malignancies for which no standard therapies exist. Thus far clinical evaluation of TPA as a single agent has documented clinical safety when administered on days 1-5 and 8-12.
The initial CINJ TPA Phase 1 study enrolled 35 patients [23 with relapsed/refractory AML, 2 with other myeloid malignancies (CML-blast crisis, myelodysplasia with excess blasts), 3 with Hodgkin's Disease, 3 with non-Hodgkin's lymphoma and 4 with solid tumors]. The majority of patients had relapsed/refractory AML. Our clinical results include one AML patient with stable disease for >5 months, who received 8 TPA infusions. In a second AML patient, a pronounced (5-fold) decline in the number of circulating blasts was seen following TPA administration. This decline in leukemic blasts persisted for 4 weeks; the patient eventually died from a fungal infection.

ERK phosphorylation = test: Ex vivo ERK phosphorylation in clinical AML samples (Western analysis); assay type: cell-based, human
[4] = 5 patients, 0.125 mg/m^2, cited from earlier work
primary AML cells [5] = test: Ex vivo cytotoxicity on primary AML cells (cell viability and apoptosis assays)

Row | Compound | Unusual untoward effects attributable to the agent [1] | Effect on TPA cytotoxicity (primary AML cells [2]) | DLT's reported ([3]; CINJ TPA study) | Patients with grade III non-hematologic dose limiting toxicities (DLT) ([3]; last cohort, 0.188 mg/m^2 d1-5, 8-12) | Maximum tolerated TPA dose as a single agent ([3]; on d1-5 and 8-12) | Duration of stable disease ([3]; one AML patient, 8 TPA infusions) | Clinical response of chest wall mass ([3]; patient with relapsed and refractory Hodgkin's disease) | Persistence of decline in leukemic blasts ([3]; second AML patient) | Decline in the number of circulating blasts ([3]; second AML patient, following TPA administration) | ERK phosphorylation (ERK phosphorylation; all primary cultures analyzed by Western analysis, by 1 hour in culture) | TPA concentration (as low as) giving detectable increases in ERK phosphorylation (ERK phosphorylation; ex vivo exposure of clinical AML samples) | TPA level in blood, average ([4]; immediately post-infusion) | TPA level in blood, average ([4]; one hour post infusion) | Cytotoxic effects by TPA concentration (primary AML cells [5]; clinical AML samples ex vivo, 32 nM vs 3.2 nM, unpublished observations) | Cytotoxic effects, cell viability and apoptosis assays (primary AML cells [5]; small panel of clinical AML samples, subset of AML cases)
1 | C[C@@H]1C[C@H]2[C@@H]3CCC4=CC(=O)C=C[C@]4(C)[C@@]3(F)[C@@H](O)C[C@]2(C)[C@@]1(O)C(=O)CO [dexamethasone] | did not detect any unusual untoward effects; also recorded: did not, detect any unusual untoward elects | enhance TPA cytotoxicity | – | – | – | – | – | – | – | – | – | – | – | – | –
2 | CCCCCCCCCCCCCC(=O)O[C@@H]1[C@@H](C)[C@@]2(O)[C@@H](C=C(CO)C[C@]3(O)C(=O)C(C)=C[C@@H]23)[C@@H]2C(C)(C)[C@]12OC(C)=O [TPA, 12-O-tetradecanoylphorbol-13-acetate] | – | – | grade 3 dyspnea, grade 3 hypoxia and a grade 3 episode of hypotension | 2 out of 3 | 0.125 mg/m^2/d | > 5 months | partial remission | 4 weeks | 5 fold | strongly induced | 0.032 nM | 1.75 ng/ml blood and 2.8 nM | 0.93 ng/ml blood and 1.5 nM | 32 nM is more cytotoxic than 3.2 nM | direct cytotoxic effects

From patent publication US8575216B2, “Method of treatment for acute myelogenous leukemia” (priority 2009, dated 2013)
